Assay results published in patent publication EP0179667B1, “N6-substituted adenosines” (priority 1984, dated 1986).

Key:
Swiss-Webster male mice [1] = assay: Mouse Activity and Screen Test Procedure (MAST): locomotor activity in actophotometer; format: in vivo; details: one hour prior to testing
Protocol: Nine unfasted Swiss-Webster male mice weighing 20-30 g equally divided into three groups for each drug dose to be tested. That is, data for each dose level was generated by three separated groups of three mice each. A minimum of three dose levels (10, 30, and 100 mg/kg) are tested for each drug. Treatments are administered intraperitoneally one hour prior to testing. All dosages are calculated as parent compound and given in volumes of 10 ml/kg. […] Control animals are injected with Methocel. […] The actophotometer consists of a cylindrical chamber whose center is occupied by another cylinder which contains the illumination for six photocells located on the perimeter of the chamber. Six light-beam interruptions equal one count. […] Data: The data obtained from the screen test are expressed as percent of mice falling off the screen. Data derived from locomotor activity of drug treated mice are compared to the activity of vehicle treated animals and are expressed as percent inhibition of spontaneous locomotion. All percentages reported for inhibition of locomotion (LI) are based upon data accumulated for one hour. […] An overall dose rating is obtained by the following criteria: LAD refers to the lowest dose at which an A rating is achieved. […] The compounds are identified in the Examples.

adenosine A1 receptor = biological target: T1, adenosine A1 receptor (Rattus norvegicus, UniProt P25099); assay: Adenosine Receptor Binding - A1 Receptor Affinity (RBA1); details: [3H]-CHA, rat whole brain membranes; read-out: RBA-1
T1 construct: Whole brain minus cerebellum and brainstem from male Long Evans rats (150-200 g) was homogenized; from tissue; host or cells: rat whole brain minus cerebellum and brainstem, membrane homogenate
T1 sequence (P25099 1-326): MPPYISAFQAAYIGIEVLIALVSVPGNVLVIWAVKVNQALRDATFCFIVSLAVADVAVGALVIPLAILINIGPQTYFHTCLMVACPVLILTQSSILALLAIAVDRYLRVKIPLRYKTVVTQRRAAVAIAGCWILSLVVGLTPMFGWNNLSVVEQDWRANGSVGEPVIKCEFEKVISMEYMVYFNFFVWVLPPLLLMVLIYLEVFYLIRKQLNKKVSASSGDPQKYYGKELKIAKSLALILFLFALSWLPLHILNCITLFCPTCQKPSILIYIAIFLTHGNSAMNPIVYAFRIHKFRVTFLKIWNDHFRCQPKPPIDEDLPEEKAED
Protocol: Adenosine Receptor Binding - A1 Receptor Affinity (RBA1)
Whole brain minus cerebellum and brainstem from male Long Evans rats (150-200 g) was homogenized in 30 volumes of ice-cold 0.05 M Tris-HCI buffer pH 7.7 using a Brinkman Polytron PT-10 (setting number 6 for 20 seconds) and centrifuged for ten minutes at 20,000 x g (Sorvall RC-2), 4°C. The supernatant was discarded, and the pellet was resuspended and centrifuged as before. The pellet was resuspended in 20 ml Tris-HCI buffer containing two International Units/ml of adenosine deaminase (Sigma type III from calf intestinal mucosa), incubated at 37°C for 30 minutes, then subsequently at 0°C for ten minutes. The homogenate was again centrifuged, and the final pellet was resuspended in ice-cold 0.05 M Tris-HCI buffer pH 7.7 to a concentration of 20 mg/ml original wet tissue weight and used immediately.
Tissue homogenate (10 mg/ml) was incubated in 0.05 M Tris-HCI buffer pH 7.7 containing 1.0 nM [^3H]-N^6-cyclohexyladenosine (^3H]-CHA) with or without test agents in triplicate for one hour at 25°C. Incubation volume was 2 ml. Unbound [^3H]-CHA was separated by rapid filtration under reduced pressure through Whatman glass fiber (GF/B) filters. The filters were rinsed three times with 5 ml of ice cold 0.05 M Tris-HCI buffer pH 7.7. The radio-labeled ligand retained on the filter was measured by liquid scintillation spectrophotometry after shaking the filters for one hour or longer on a mechanical shaker in 10 ml of Beckman Ready Solv HP scintillation cocktail.
Nonspecific binding was defined as the binding which occurred in the presence of 1 mM thophylline. […] The Scatchard plot was calculated by linear regression of the line obtained by plotting the amount of radioligand bound (pmoles/gram of tissue) versus [formula] Since the amount of radioligand bound was a small fraction of the total amount added, free radioligand was defined as the concentration (nM) of radioligand added to the incubation mixture. The Hill coefficient was calculated by linear regression of the line obtained by plotting the log of the bound radioligand vs the log of the [formula] The maximal number of binding sites (Bmax) was calculated from the Scatchard plot.

Swiss-Webster male mice [2] = assay: Mouse Activity and Screen Test Procedure (MAST): screen test (ST); format: in vivo; details: one hour postinjection
Description: The compounds of the invention are new chemical substances which are useful as pharmaceutical agents for the treatment of psychoses. The antipsychotic activity of representative compounds of the invention was established by the Mouse Activity and Screen Test Procedrue (MAST) described below.
Nine unfasted Swiss-Webster male mice weighing 20-30 g equally divided into three groups for each drug dose to be tested. That is, data for each dose level was generated by three separated groups of three mice each.
A minimum of three dose levels (10, 30, and 100 mg/kg) are tested for each drug. Treatments are administered intraperitoneally one hour prior to testing. All dosages are calculated as parent compound and given in volumes of 10 ml/kg. Compounds are dissolved or suspended in 0.2% Methocel. Control animals are injected with Methocel.
Testing: A two part testing procedure is started one hour postinjection. First, the screen test (ST) is performed (see Pharmac. Biochem. Behav. 6, 351-353, 1977). Briefly this test consists of placing mice on individual wire screens which are then rotated 180 degrees at the start of a 60 second observation period. The number of mice falling off the inverted screen is recorded.
Data: The data obtained from the screen test are expressed as percent of mice falling off the screen. Data derived from locomotor activity of drug treated mice are compared to the activity of vehicle treated animals and are expressed as percent inhibition of spontaneous locomotion. All percentages reported for inhibition of locomotion (LI) are based upon data accumulated for one hour. Both phases of testing are graded: A=60-100%; G=31-59%; and N=0-30%. An overall dose rating is obtained by the following criteria:
LAD refers to the lowest dose at which an A rating is achieved. […] Utilizing this procedure, an overall dose rating of A was obtained for the noted compound at the indicated dose. The compounds are identified in the Examples.

adenosine A2 receptor = biological target: T2, adenosine A2 receptor (Rattus norvegicus, UniProt P30543); assay: Adenosine Receptor Binding - A2 Receptor Affinity (RBA2); details: [3H]NECA, rat striatal membranes; read-out: RBA-2
T2 construct: 5 mg original tissue weight of rat weight of rat striatal membranes; tissue Pel-Freez (Rogers, Arkansas); host or cells: rat striatum, membrane preparation
Protocol: Adenosine Receptor Binding - A2 Receptor Affinity (RBA2)
Brains from 200-500 g mixed sex Sprague-Dawley rats were purchased from Pel-Freez (Rogers, Arkansas). […] Brains were thawed and then kept on ice while the striata were dissected out. […] When needed, tissue was thawed at room temperature, disrupted in a Polytron, and kept on ice until used.
All incubations were for 60 minutes at 25°C in 12x75 mm glass tubes containing 1 ml Tris with 5 mg original tissue weight of rat weight of rat striatal membranes, 4 nM [^3H]-N-ethyl adenosine-5'-carboxamide ([^3H]NECA), 50 nM N^6-cyclopentyladenosine (to eliminate A1 receptor binding), 10 mM MgCl2, 0.1 units/ml of adenosine deaminase and 1% dimethylsulfoxide. N^6-Cyclopentyladenosine was dissolved at 10 mM in 0.02 N HCI and diluted in Tris. […] Test compounds were dissolved at 10 mM in dimethylsulfoxide on the same day as the experiment, and diluted in dimethylsulfoxide to 100x the final incubation concentration. […] [^3H]NECA was diluted to 40 nM in Tris. The membrane suspension (5 mg/0.79 ml) contained sufficient MgC12 and adenosine deaminase to give 10 mM and 0.1 units/ml, respectively, final concentration in the incubation. For test compounds with lC50 values less than 1 µM, the order of additions was test compound (10 µl), N^6-cyclopentyladenosine (100 µl), [^3H]NECA (100 µl), and membranes (0.79 ml). […] After all additions, the rack of tubes was vortexed, and the tubes were then incubated for 60 min at 25°C in a shaking water bath. The rack of tubes was vortexed an additional time halfway through the incubation.
incubations were terminated by filtration through 2.4 cm GF/B filters under reduced pressure. Each tube was filtered as follows: the contents of the tube were poured onto the filter, 4 ml of ice-cold Tris were added to the tube and the contents poured onto the filter, and the filter was washed twice with 4 ml of ice-cold Tris. The filtration was complete in about twelve seconds.
Nonspecific binding was defined as binding in the presence of 100 µM N^6-cyclopentyladenosine, and specific binding was defined as total binding minus nonspecific binding. The IC50 was calculated by weighed nonlinear least squares curve-fitting to the mass-action equation. [formula] • where Y is cpm bound • T is cpm total binding without drug • S is cpm specific binding without drug • D is the concentration of drug • and K is the IC50 of the drug Weighting factors were calculated under the assumption that the standard deviation was proportional to the predicted value of Y. Nonspecific binding was treated as a very large (infinite) concentration of drug in the computer analysis.

T2 sequence (P30543 whole entry): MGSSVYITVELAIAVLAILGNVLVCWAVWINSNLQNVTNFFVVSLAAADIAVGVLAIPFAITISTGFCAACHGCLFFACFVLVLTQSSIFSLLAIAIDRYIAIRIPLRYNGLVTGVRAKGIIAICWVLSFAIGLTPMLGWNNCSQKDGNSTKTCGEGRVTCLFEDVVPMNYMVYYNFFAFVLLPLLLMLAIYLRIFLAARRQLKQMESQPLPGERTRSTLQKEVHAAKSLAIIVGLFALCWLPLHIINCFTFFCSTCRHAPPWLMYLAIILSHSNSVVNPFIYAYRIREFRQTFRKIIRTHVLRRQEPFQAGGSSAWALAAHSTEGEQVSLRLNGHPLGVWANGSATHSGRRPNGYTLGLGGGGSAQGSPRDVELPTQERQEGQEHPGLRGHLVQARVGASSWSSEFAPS

IC50 (adenosine A1 receptor)	Screen test failure (Swiss-Webster male mice [2]; 3 mg/kg intraperitoneally)	Screen test failure (Swiss-Webster male mice [2]; 10 mg/kg intraperitoneally)	Screen test failure (Swiss-Webster male mice [2]; 30 mg/kg intraperitoneally)	IC50 (adenosine A2 receptor)	Screen test failure (Swiss-Webster male mice [2]; 1 mg/kg intraperitoneally)	SMILES	Inhibition of mouse locomotor activity (Swiss-Webster male mice [1]; 3 mg/kg intraperitoneally)	Inhibition of mouse locomotor activity (Swiss-Webster male mice [1]; 10 mg/kg intraperitoneally)	Inhibition of mouse locomotor activity (Swiss-Webster male mice [1]; 30 mg/kg intraperitoneally)	Inhibition of mouse locomotor activity (Swiss-Webster male mice [1]; 1 mg/kg intraperitoneally)
0.444 µM				2.61 µM		COc1cccc2c1CCC[C@H]2Nc1ncnc2c1ncn2[C@@H]1O[C@H](CO)[C@@H](O)[C@H]1O [Example 11, (R)-N^6-[5-methoxy-1-aminotetralin]-adenosine]				
	0%	0%	11%		11%	CCOC(=O)OC[C@H]1O[C@@H](n2cnc3c(NC4CCCc5ccccc54)ncnc32)[C@H](OC(=O)OCC)[C@@H]1OC(=O)OCC (stereo partly drawn) [Example 19, N^6-1-tetralinyl-2',3',5'-triethylcarbonate-adenosine]	57%	91%	95%	42%

More lines, now with the values behind:

SMILES	IC50 (adenosine A1 receptor)	Screen test failure (Swiss-Webster male mice [2]; 3 mg/kg intraperitoneally)	Screen test failure (Swiss-Webster male mice [2]; 10 mg/kg intraperitoneally)	Screen test failure (Swiss-Webster male mice [2]; 30 mg/kg intraperitoneally)	IC50 (adenosine A2 receptor)	Screen test failure (Swiss-Webster male mice [2]; 1 mg/kg intraperitoneally)	Inhibition of mouse locomotor activity (Swiss-Webster male mice [1]; 3 mg/kg intraperitoneally)	Inhibition of mouse locomotor activity (Swiss-Webster male mice [1]; 10 mg/kg intraperitoneally)	Inhibition of mouse locomotor activity (Swiss-Webster male mice [1]; 30 mg/kg intraperitoneally)	Inhibition of mouse locomotor activity (Swiss-Webster male mice [1]; 1 mg/kg intraperitoneally)
CC1(C)O[C@@H]2[C@H](O1)[C@@H](CO)O[C@H]2n1cnc2c(NC3CCCc4ccccc43)ncnc21 (stereo partly drawn) [Example 12, N^6-(1-tetralinyl)-2',3'-O-isopropylidene-adenosine]	22.4 µM	0%	0%	0%			3%	−1%	−16%	
O=C(OC[C@H]1O[C@@H](n2cnc3c(NC4CCCc5ccccc54)ncnc32)[C@H](O)[C@@H]1O)c1ccccc1 (stereo partly drawn) [Example 13, N^6-(1-tetralinyl)-5'-benzoyladenosine]	1.06 µM				7.92 µM					
O[C@@H]1[C@H](O)[C@@H](COCc2ccccc2)O[C@H]1n1cnc2c(NC3CCCc4ccccc43)ncnc21 (stereo partly drawn) [Example 20, N^6-tetralinyl-5'-benzylether-adenosine]	5.84 µM				46.7 µM					
